Here are results for two molecules from article PMC9123294, “Role of LL-37 in thrombotic complications in patients with COVID-19” (Cellular and Molecular Life Sciences: CMLS, 2022).

Assay [1] addresses Human alpha thrombin (Homo sapiens, UniProt P00734). Briefly: biochemical. How it is done: SPR analysis was performed as described previously, with some modifications. Briefly, thrombin and FXa were immobilized on the activated sensor chip CM-5 by amine coupling. […] The equilibrium dissociation constant (KD) was calculated using the Langmuir model with Biacore evaluation software provided by the manufacturer.

Assay [2] addresses T1, Human factor Xa (human, UniProt P00742 41-179; P00742 235-488).
T1 construct: also called FXa; source: bought: Enzyme Research Laboratories (HFXa 1011)
As to the kind of experiment: SPR; thrombin and FXa immobilised on a CM-5 sensor chip by amine coupling; LL-37 or Cramp flowed in HBS-EP+ running buffer at 30 ul/min; BIAcore 3000; KD from the Langmuir model. Particulars: both partners purified. For orientation: In SPR one partner is held on a chip, and binding of the other changes the refractive index at the surface.

T1 sequence (P00742 41-179, chain 1 of 2): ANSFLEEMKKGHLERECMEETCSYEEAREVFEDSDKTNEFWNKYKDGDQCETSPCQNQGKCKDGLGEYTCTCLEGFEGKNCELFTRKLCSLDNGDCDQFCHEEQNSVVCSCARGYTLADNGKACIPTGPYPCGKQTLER
T1 sequence (P00742 235-488, chain 2 of 2): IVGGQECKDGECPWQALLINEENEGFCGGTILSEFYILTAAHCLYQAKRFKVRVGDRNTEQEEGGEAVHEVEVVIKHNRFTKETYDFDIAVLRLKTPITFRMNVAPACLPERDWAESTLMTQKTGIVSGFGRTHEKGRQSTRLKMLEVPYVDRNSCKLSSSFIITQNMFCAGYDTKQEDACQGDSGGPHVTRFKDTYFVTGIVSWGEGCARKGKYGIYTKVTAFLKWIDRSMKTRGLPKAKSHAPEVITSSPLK

One may read the Kd as a measure of binding affinity in units of concentration. Lower therefore signals tighter binding. `CC[C@H](C)[C@H](NC(=O)[C@H](CCCCN)NC(=O)[C@H](CCC(=O)O)NC(=O)[C@H](CCCCN)NC(=O)[C@H](CO)NC(=O)[C@H](CCCCN)NC(=O)[C@H](CCCNC(=N)N)NC(=O)[C@H](Cc1ccccc1)NC(=O)[C@H](Cc1ccccc1)NC(=O)[C@H](CC(=O)O)NC(=O)CNC(=O)[C@H](CC(C)C)NC(=O)[C@@H](N)CC(C)C)C(=O)NCC(=O)N[C@@H](CCCCN)C(=O)N[C@@H](CCC(=O)O)C(=O)N[C@@H](Cc1ccccc1)C(=O)N[C@@H](CCCCN)C(=O)N[C@@H](CCCNC(=N)N)C(=O)N[C@H](C(=O)N[C@H](C(=O)N[C@@H](CCC(N)=O)C(=O)N[C@@H](CCCNC(=N)N)C(=O)N[C@H](C(=O)N[C@@H](CCCCN)C(=O)N[C@@H](CC(=O)O)C(=O)N[C@@H](Cc1ccccc1)C(=O)N[C@@H](CC(C)C)C(=O)N[C@@H](CCCNC(=N)N)C(=O)N[C@@H](CC(N)=O)C(=O)N[C@@H](CC(C)C)C(=O)N[C@H](C(=O)N1CCC[C@H]1C(=O)N[C@@H](CCCNC(=N)N)C(=O)N[C@H](C(=O)N[C@@H](CCC(=O)O)C(=O)N[C@@H](CO)C(=O)O)[C@@H](C)O)C(C)C)[C@@H](C)CC)C(C)C)[C@@H](C)CC` [LL-37] showed a Kd in assay [1] of 2.64 µM.

B1: Cramp (peptide)
peptide: GLLRKGGEKIGEKLKKIGQKIKNFFQKLVPQPE
notes: also called LL-37 homolog from Mus musculus; cathelicidin peptide; source: synthetic peptide (GL Biochem, Shanghai; purity > 98%)
For the molecule B1, in assay [2], the Kd is 317 µM.
